16 molecules from patent publication US20100311729A1, “Substituted imidazopyridazines and pyrrolopyrimidines as lipid kinase inhibitors” (priority 2007, published 2010) can be followed below.

Format in all cases: biochemical
One test concerns the target T1, PI3K delta (Homo sapiens, UniProt O00329).
T1 construct: for the full-length p110-d subunit are generated and fused by overlapping PCR; His tag (C); made in house; host or cells: baculovirus; Tn5 (Trichoplusia ni) or TiniPro insect cells
In words: PI3 kinase assay (Kinase-Glo luminescence), PI3K delta. Conditions: Enzymatic Data; read-out: PI3K delta IC50 [umol]. As for the experimental part:
(§1) In a more preferred assay, the kinase reaction is performed in a final volume of 10 μL per well of a low volume non binding CORNING, 384 well black plate (Cat. No. #3676). The final concentrations of ATP and phosphatidyl inositol (PI) in the assay are 1 μM and 10 μg/mL respectively. The reaction is started by the addition of ATP.
(§2) The components of the assay are added per well as follows:
(§3) 50 nL test compounds in 90% DMSO per well, in columns 1-20, 8 concentrations (1/3 and 1/3.33 serial dilution step) in single. • Low control: 50 nL of 90% DMSO in half the wells of columns 23-24 (0.45% in final). • High control: 50 nL of reference compound (e.g. compound of Example 7 in WO 2006/122806, incorporated by reference hereinin that regard) in the other half of columns 23-24 (2.5 μM in final). • Standard: 50 nL of reference compound as just mentioned diluted as the test compounds in columns 21-22 • 20 mL ‘buffer’ are prepared per assay: • 200 μL of 1M TRIS HCl pH7.5 (10 mM in final) • 60 μL of 1M MgCl2 (3 mM in final) • 500 μL of 2M NaCl (50 mM in final) • 100 μL of 10% CHAPS (0.05% in final) • 200 μL of 100 mM DTT (1 mM in final) • 18.94 mL of nanopure water • 10 mL ‘PI’ are prepared per assay: • 200 μL of 1 mg/ml L-alpha-Phosphatidylinositol (Liver Bovine, Avanti Polar Lipids Cat. No. 840042C MW=909.12) prepared in 3% OctylGlucoside (10 μg/ml in final) • 9.8 mL of ‘buffer’ • 10 mL ‘ATP’ are prepared per assay: • 6.7 μL of 3 mM stock of ATP giving a final concentration of 1 μM per well • 10 mL of ‘buffer’ • 2.5 mL of each PI3K construct are prepared per assay in ‘PI’ with the following final concentration : • 10 nM PI3K alfa B-1075 • 25 nM beta BV-949 • 10 nM delta BV-1060 • 150 nM gamma BV-950 • 5 μL of ‘PI/PI3K’ are added per well. • 5 μl ‘ATP’ are added per well to start the reaction. • The plates are then incubated at room temperature for 60 minutes (alfa, beta, delta) or 120 minutes (gamma). • The reaction is terminated by the addition of 10 μL Kinase-Glo (Promega Cat. No. #6714). • The assay plates are read after 10 minutes in Synergy 2 reader (BioTek, Vermont USA) with an integration time of 100 milliseconds and sensitivity set to 191. • Output : The High control is around 60'000 counts and the Low control is 30'000 or lower • This luminescence assay gives a useful Z′ ratio between 0.4 and 0.7
(§4) […] is determined by a four parameter curve fitting routine that comes aloneg with “excel fit”. A 4 Parameter logistic equation is used to calculate IC50 values (IDBS XLfit) of the percentage inhibition of each compound at 8 concentrations (usually 10, 3.0, 1.0, 0.3, 0.1, 0.030, 0.010 and […]). Alternatively, IC50 values are calculated using idbsXLfit model 204, which is a 4 parameter logistic model.
(§5) Testing with the following kinases in the test system mentioned above, with the kinases given in the following tables, the following IC 50 data can be obtained: […]
For orientation: In Kinase-Glo more light means more ATP remaining.

The next test addresses T2, PI3K beta (Homo sapiens, UniProt P42338).
T2 construct: for the full-length p110-b subunit are generated and fused by overlapping PCR; His tag (C); made in house; host or cells: baculovirus; Tn5 (Trichoplusia ni) or TiniPro insect cells
In words: PI3 kinase assay (Kinase-Glo luminescence), PI3K beta. Conditions: Enzymatic Data; read-out: PI3K beta IC50 [umol]. As for the experimental part:
as §1, §2, §3, §4, §5

In the next test the target is T3, PI3K gamma (Homo sapiens, UniProt P48736).
T3 construct: PI3Kγ BV-950 p110g(D144aa)-C-Term His Tag; His tag (C); made in house; host or cells: construct from the Roger Williams lab (MRC LMB) in pVL1393; baculovirus; Tn5 (Trichoplusia ni) or TiniPro insect cells
In words: PI3 kinase assay (Kinase-Glo luminescence), PI3K gamma. Conditions: Enzymatic Data; read-out: PI3K gamma IC50 [umol]. As for the experimental part: as §1, §2, §4

A further test has as its target T4, PI3K alfa (Homo sapiens, UniProt P42336).
T4 construct: for the p110-a subunit (with a deletion of the first 20 amino acids); His tag (C); made in house; host or cells: baculovirus; Tn5 (Trichoplusia ni) or TiniPro insect cells
Description: PI3 kinase assay (Kinase-Glo luminescence), PI3K alfa. The following applies: Enzymatic Data; read-out: PI3K alfa IC50 [umol]. As for the experimental part:
as §1, §2, §3, §4, §5

Molecules are shown by their SMILES. A value given as a limit tells only on which side of the number the result lay.

T1 sequence (O00329 with tags, fused parts or gaps limits assumed): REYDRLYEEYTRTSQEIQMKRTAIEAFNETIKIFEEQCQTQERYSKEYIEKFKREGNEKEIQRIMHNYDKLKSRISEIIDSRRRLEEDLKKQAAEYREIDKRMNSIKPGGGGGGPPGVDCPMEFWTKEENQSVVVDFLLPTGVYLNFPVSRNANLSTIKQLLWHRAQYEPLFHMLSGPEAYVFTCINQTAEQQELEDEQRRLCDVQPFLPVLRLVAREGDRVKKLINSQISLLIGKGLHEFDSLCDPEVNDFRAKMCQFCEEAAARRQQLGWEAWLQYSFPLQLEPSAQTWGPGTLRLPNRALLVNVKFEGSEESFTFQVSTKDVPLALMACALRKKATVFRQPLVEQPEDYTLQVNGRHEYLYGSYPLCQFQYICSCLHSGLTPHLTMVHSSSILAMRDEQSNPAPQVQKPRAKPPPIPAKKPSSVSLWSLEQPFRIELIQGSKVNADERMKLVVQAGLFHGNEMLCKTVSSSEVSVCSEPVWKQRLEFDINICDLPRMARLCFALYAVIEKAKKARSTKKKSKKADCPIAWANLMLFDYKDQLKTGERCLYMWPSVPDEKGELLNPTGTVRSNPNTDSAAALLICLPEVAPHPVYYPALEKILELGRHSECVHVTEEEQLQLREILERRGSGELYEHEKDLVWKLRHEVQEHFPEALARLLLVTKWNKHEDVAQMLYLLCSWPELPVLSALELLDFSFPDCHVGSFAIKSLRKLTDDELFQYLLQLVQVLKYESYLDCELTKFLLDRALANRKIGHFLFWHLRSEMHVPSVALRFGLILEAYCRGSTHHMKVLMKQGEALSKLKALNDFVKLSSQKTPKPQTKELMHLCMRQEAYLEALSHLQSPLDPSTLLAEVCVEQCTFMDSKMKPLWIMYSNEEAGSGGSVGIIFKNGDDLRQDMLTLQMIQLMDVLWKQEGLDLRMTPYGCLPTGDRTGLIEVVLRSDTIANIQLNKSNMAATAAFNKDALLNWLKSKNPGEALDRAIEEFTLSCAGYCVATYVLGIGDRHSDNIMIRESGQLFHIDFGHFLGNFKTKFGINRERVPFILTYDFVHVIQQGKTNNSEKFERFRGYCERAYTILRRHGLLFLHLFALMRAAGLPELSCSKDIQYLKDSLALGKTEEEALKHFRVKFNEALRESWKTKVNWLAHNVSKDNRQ
T2 sequence (P42338 with tags, fused parts or gaps limits assumed): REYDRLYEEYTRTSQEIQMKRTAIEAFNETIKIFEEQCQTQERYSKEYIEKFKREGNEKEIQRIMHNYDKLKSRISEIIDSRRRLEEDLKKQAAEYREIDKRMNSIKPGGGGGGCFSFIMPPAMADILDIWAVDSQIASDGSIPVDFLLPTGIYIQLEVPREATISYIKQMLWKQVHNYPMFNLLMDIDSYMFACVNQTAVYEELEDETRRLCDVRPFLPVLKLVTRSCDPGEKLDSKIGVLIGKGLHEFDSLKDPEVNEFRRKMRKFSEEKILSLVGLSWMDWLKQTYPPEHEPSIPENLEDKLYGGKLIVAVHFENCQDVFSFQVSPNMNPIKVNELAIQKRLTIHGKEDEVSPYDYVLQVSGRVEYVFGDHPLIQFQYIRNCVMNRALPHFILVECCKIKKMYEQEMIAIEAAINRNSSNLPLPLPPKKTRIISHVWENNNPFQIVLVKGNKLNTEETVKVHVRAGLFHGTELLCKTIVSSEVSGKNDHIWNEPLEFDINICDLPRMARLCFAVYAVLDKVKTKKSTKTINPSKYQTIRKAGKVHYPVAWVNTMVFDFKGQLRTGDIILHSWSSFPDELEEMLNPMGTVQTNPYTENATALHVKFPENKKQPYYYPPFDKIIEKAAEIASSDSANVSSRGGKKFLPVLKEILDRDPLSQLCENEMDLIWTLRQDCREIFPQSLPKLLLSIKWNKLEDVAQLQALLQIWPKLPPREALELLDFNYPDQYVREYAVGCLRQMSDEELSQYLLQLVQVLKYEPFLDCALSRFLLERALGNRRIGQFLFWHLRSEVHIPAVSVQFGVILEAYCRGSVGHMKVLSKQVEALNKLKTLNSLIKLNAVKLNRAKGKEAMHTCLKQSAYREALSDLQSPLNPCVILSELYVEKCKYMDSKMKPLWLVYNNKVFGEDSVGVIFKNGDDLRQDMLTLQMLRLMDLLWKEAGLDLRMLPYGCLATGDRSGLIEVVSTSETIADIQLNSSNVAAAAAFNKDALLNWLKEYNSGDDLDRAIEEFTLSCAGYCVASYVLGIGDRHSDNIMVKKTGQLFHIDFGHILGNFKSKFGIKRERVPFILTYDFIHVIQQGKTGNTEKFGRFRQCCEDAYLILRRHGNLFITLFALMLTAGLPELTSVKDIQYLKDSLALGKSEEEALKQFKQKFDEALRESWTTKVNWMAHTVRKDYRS
T4 sequence (P42336 with tags, fused parts or gaps limits assumed): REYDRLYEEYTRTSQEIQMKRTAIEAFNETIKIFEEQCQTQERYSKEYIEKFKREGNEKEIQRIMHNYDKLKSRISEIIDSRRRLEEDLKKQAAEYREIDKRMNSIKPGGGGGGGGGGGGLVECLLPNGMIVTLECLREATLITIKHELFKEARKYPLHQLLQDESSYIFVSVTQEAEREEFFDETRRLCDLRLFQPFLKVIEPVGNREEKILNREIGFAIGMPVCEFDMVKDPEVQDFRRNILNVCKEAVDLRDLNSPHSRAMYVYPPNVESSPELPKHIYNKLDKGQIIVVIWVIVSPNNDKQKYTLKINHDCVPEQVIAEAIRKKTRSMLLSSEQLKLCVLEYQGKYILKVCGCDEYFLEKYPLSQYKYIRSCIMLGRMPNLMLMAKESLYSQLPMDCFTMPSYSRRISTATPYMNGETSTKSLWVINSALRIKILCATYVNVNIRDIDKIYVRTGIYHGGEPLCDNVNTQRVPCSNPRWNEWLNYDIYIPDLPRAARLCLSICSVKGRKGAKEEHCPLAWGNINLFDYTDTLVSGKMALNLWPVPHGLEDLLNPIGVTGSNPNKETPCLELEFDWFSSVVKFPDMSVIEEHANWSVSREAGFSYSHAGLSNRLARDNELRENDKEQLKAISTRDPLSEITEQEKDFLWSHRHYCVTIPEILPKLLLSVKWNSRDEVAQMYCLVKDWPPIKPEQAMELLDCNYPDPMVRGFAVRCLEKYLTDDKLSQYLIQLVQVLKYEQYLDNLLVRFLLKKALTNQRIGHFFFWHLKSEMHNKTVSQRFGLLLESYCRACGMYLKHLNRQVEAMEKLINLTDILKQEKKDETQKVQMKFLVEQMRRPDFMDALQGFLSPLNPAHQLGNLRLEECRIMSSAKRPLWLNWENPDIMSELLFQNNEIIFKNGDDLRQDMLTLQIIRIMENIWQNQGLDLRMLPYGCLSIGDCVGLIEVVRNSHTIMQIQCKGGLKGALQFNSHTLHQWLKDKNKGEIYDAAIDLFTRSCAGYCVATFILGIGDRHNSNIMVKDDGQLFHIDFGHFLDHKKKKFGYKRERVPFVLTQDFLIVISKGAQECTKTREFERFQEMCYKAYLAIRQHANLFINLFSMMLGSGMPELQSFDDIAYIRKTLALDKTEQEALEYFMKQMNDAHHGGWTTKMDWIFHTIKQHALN
T3 sequence (P48736 144-1102 limits assumed): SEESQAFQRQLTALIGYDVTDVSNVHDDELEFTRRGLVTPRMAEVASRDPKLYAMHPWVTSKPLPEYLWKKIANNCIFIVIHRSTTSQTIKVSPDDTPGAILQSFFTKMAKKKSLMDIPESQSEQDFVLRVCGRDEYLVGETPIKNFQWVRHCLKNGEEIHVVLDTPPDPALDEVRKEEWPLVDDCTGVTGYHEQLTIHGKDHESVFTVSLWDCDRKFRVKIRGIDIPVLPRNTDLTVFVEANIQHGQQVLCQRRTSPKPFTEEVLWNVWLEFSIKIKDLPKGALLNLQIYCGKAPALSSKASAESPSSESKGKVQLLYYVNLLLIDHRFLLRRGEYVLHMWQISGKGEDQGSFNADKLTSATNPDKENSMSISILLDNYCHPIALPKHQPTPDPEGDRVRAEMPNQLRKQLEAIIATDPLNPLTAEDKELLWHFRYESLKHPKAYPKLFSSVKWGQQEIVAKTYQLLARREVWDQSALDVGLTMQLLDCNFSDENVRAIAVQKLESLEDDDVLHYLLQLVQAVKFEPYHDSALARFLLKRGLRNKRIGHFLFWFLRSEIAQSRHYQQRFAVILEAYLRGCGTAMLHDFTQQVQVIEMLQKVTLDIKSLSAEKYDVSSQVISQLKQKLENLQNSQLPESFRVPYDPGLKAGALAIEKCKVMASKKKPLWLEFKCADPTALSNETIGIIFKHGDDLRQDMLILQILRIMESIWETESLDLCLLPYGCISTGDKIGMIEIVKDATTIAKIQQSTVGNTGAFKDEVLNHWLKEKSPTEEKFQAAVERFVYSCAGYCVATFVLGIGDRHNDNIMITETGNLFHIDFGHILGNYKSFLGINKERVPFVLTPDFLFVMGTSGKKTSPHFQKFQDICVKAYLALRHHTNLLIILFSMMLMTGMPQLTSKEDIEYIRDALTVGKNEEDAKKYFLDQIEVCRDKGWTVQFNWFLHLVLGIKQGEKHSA

Turning to `COc1ccc(-c2ccc3ncc(-c4ccc(N)nc4)n3n2)cc1OC` [Example 34, 5-[6-(3,4-Dimethoxy-phenyl)-imidazo [1,2-b]pyridazin-3-yl]-pyridin-2-ylamine], the IC50 is 143 nM on PI3K delta, 718 nM on PI3K beta, 1.31 µM on PI3K gamma and 103 nM at PI3K alfa.
For `CNS(=O)(=O)c1ccc(-c2cnc3ccc(-c4cnc(N)c(C(F)(F)F)c4)nn23)cc1` [Example 35, 4-[6-(6-Amino-5-trifluoro-methyl-pyridin-3-yl)-imidazo [1,2-b]pyridazin-3-yl]-N-methyl-benzene-sulfon-amide], in that order: 171 nM, 186 nM, > 9.1 µM and 122 nM.
Turning to `COc1cc(-c2cnc3ccc(-c4cnc(N)c(C(F)(F)F)c4)nn23)ccc1OCCCNC(=O)OC(C)(C)C` [Example 36, (3-{4-[6-(6-Amino-5-trifluoro-methyl-pyridin-3-yl)-imidazo [1,2-b]pyridazin-3-yl]-2-methoxy-phenoxy}-propyl)-carbamic acid tert-butyl ester], the IC50 turned out to be 328 nM at PI3K delta, 2160 nM at PI3K beta, 4.83 µM on PI3K gamma and 255 nM at PI3K alfa.
For `COc1cc(-c2cnc3ccc(-c4cnc(N)c(C(F)(F)F)c4)nn23)ccc1OCCCN` [Example 37, 5-{3-[4-(3-Amino-propoxy)-3-methoxy-phenyl]-imidazo[1,2-b]pyridazin-6-yl}-3-trifluoro-methyl-pyridin-2-ylamine], in that order: 72 nM, 54 nM, 1.12 µM and 110 nM.
Take `COc1ccc(-c2ccc3ncc(-c4cnc(N)cn4)n3n2)cc1OC` [Example 38, 5-[6-(3,4-Dimethoxy-phenyl)-imidazo [1,2-b]pyridazin-3-yl]-pyrazin-2-ylamine]: the IC50 at PI3K delta worked out at 121 nM; at PI3K beta, 226 nM; on PI3K gamma it was 1.69 µM; at PI3K alfa, 92 nM.
For `Nc1ccc(-c2cnc3ccc(-c4cnc(N)c(C(F)(F)F)c4)nn23)cn1` [Example 39, 5-{3-(6-Amino-pyridin-3-yl)-imidazo [1,2-b]pyridazin-6-yl]-3-trifluoro-methyl-pyridin-2-ylamine], in that order: 40 nM, 19 nM, 1.29 µM and 54 nM.
For `CC(C)(C)OC(=O)NCCCOc1ccc(-c2cnc3ccc(-c4cnc(N)c(C(F)(F)F)c4)nn23)cc1OC(F)(F)F` [Example 40, (3-{4-[6-(6-Amino-5-trifluoro-methyl-pyridin-3-yl)-imidazo [1,2-b]pyridazin-3-yl]-2-trifluoro-methoxy-phenoxy}-propyl)-carbamic acid tert-butylester], in that order: > 9100 nM, > 9100 nM, > 9.1 µM and 6900 nM.
For the molecule `Nc1ncc(-c2ccc3ncc(-c4cnc5[nH]ccc5c4)n3n2)cc1C(F)(F)F` [Example 41, 5-[3-(1H- Pyrrolo [2,3-b]pyridin-5-yl)-imidazo [1,2-b]pyridazin-6-yl]-3-trifluoro-methyl-pyridin-2-ylamine], the IC50 at PI3K delta stood at 207 nM; at PI3K beta it was 212 nM; on PI3K gamma, 1.6 µM; on PI3K alfa it was 264 nM.
For `COc1ccc(-c2cnc3ccc(-c4cnc5[nH]ccc5c4)nn23)cc1OC` [Example 42, 3-(3,4-Dimethoxy-phenyl)-6-(1H-pyrrolo[2,3-b]pyridin-5-yl)-imidazo [1,2-b] pyridazine], in that order: 624 nM, > 9100 nM, > 9.1 µM and 635 nM.
Consider `NCCCOc1ccc(-c2cnc3ccc(-c4cnc(N)c(C(F)(F)F)c4)nn23)cc1OC(F)(F)F` [Example 43, 5-{3-[4-(3-Amino-propoxy)-3-trifluoro-methoxy-phenyl]-imidazo[1,2-b]pyri-dazin-6-yl}-3-trifluoro-methyl-pyridin-2-ylamine], for which the IC50 on PI3K delta was 403 nM; on PI3K beta it was 528 nM; on PI3K gamma it was 8.44 µM; on PI3K alfa, 472 nM.
For `COc1ccc(-c2ccc3ncc(-c4ccc(NS(C)(=O)=O)cc4)n3n2)cc1OC` [Example 44, N-{4-[6-(3,4-Dimethoxy-phenyl)-imidazo [1,2-b]pyridazin-3-yl]-phenyl}-methane-sulfonamide], in that order: 336 nM, 2220 nM, 3.5 µM and 297 nM.
For `CS(=O)(=O)Nc1ccc(-c2cnc3ccc(-c4cnc(N)c(C(F)(F)F)c4)nn23)cc1` [Example 45, N-{4-[6-(6-Amino-5-trifluoro-methyl-pyridin-3-yl)-imidazo [1,2-b]pyridazin-3-yl]-phenyl}-methane-sulfonamide], in that order: 282 nM, 378 nM, 7.07 µM and 154 nM.
In the same order, the values of `COc1ccc(-c2ccc3ncc(-c4cnc(N)c(C(F)(F)F)c4)n3n2)cc1` [Example 46, 5-[6-(4-Methoxy-phenyl)-imidazo[1,2 b]pyridazin-3-yl]-3 trifluoro-methyl-pyridin-2-ylamine] are 2980 nM, 6280 nM, > 9.1 µM and 1620 nM.
With `COc1ccc(-c2ccc3ncc(-c4cnc5[nH]ccc5c4)n3n2)cc1` [Example 47, 6-(4-Methoxy-phenyl)-3-(1H-pyrrolo [2,3-b]pyridin-5-yl)-imidazo [1,2-b] pyridazine], the IC50 on PI3K delta was 3840 nM; on PI3K beta it was > 9100 nM; at PI3K gamma, > 9.1 µM; on PI3K alfa, 2720 nM.
For `COc1ccc(-c2ccc3ncc(-c4cnc(N)c(C(F)(F)F)c4)n3n2)cc1F` [Example 48, 5-[6-(3-Fluoro-4-methoxy-phenyl)-imidazo [1,2-b]pyridazin-3-yl]-3-trifluoro-methyl-pyridin-2-ylamine], in that order: 2440 nM, 6790 nM, > 9.1 µM and 1120 nM.
For `COc1ccc(-c2ccc3ncc(-c4cnc5[nH]ccc5c4)n3n2)cc1F` [Example 49, 6-(3-Fluoro-4-methoxy-phenyl)-3-(1H-pyrrolo [2,3-b]pyridin-5-yl)-imidazo [1,2-b] pyridazine], the IC50 on PI3K delta was 4810 nM; on PI3K beta, > 9100 nM; on PI3K gamma, 6.04 µM; on PI3K alfa it was 1620 nM.
